≈ marks a conversion by molar mass, not a printed value.
Legend:
[1] = Cytotoxicity against C8166 cells after 72 hrs by MTT method; format: cell-based; conditions: human
[2] = tested on: Human immunodeficiency virus 1; experiment: Antiviral activity against HIV1 3B in C8166 cells; format: functional, organism-based; conditions: Human immunodeficiency virus 1, 3B

| Compound | CC50 at 72 h [1] | EC50 [2] |
| --- | --- | --- |
| COC(=O)C[C@H]1OC(C)(C)[C@@H]2C[C@H]3O[C@@]12C[C@]12CC[C@]4(C)C(=O)[C@@H](C)[C@@H]5[C@H]6OC(=O)[C@@H](C)[C@H]6O[C@@](O1)(C(=O)[C@H]32)[C@@H]54 [RUBRIFLORIN A] | 89.1 µg/mL (≈ 159 µM) | 10 µg/mL (≈ 17.9 µM) |
| COC(=O)C[C@H]1OC(C)(C)C2=C1C[C@]13CC[C@]4(C)C(=O)[C@@H](C)[C@@H]5[C@H]6OC(=O)[C@@H](C)[C@H]6O[C@@](O1)(C(=O)C3=CC2=O)[C@@H]54 [RUBRIFLORIN B] | 100 µg/mL (≈ 181 µM) | 16.2 µg/mL (≈ 29.2 µM) |
| CCOC(=O)C[C@H]1OC(C)(C)C2=C1C[C@]13CC[C@]4(C)C(=O)[C@@H](C)[C@@H]5[C@H]6OC(=O)[C@@H](C)[C@H]6O[C@@](O1)(C(=O)C3=CC2=O)[C@@H]54 [RUBRIFLORIN C] | > 200 µg/mL | 81.3 µg/mL (≈ 143 µM) |
| Cc1cn([C@H]2C[C@H](N=[N+]=[N-])[C@@H](CO)O2)c(=O)[nH]c1=O [ZIDOVUDINE] | > 200 µg/mL | 0.0043 µg/mL (≈ 0.0161 µM) |

From ChEMBL document CHEMBL1143675, “Triterpenoids from Schisandra rubriflora” (J Nat Prod, 2007)
